Source: patent US20210387973A1, “SUBSTITUTED HETEROCYCLIC COMPOUNDS AND THEIR USE AS RETINOID-RELATED ORPHAN RECEPTOR (ROR) GAMMA-T INHIBITORS” (Technische Universiteit Eindhoven, priority 2019, published 2021)
Like-named read-outs stand apart in the source and are kept apart here.

Columns and labels:
[1] = target: T1, His6-RORγt ligand binding domain (Homo sapiens, UniProt P51449); experiment: TR-FRET coactivator recruitment assay; type: biochemical; details: for Dependence of coactivator recruitment inhibition on cholesterol: fixed concentrations of orthosteric agonist cholesterol
T1 sequence (P51449 269-508 limits assumed): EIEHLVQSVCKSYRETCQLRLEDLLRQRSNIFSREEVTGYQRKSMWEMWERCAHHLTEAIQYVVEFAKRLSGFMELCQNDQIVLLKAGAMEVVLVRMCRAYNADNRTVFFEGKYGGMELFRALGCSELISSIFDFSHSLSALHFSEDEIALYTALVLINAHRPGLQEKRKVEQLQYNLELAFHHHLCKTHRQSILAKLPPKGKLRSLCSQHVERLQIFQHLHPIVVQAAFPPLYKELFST
Procedure: In the present application the IC50 is determined according to a biochemical TR-FRET assay. […] A terbium labelled anti-His antibody (CisBio Bioassays, 61HISTLA) and D2-labelled streptavidin (CisBio Bioassays, 610SADLA) are used at the concentrations recommended by the supplier. Compounds (dissolved in DMSO) are titrated using a 2× dilution series in Corning white low volume, low binding, 384-well plates at a final volume of 10 μL The final DMSO concentration being 2% v/v throughout. […] The data is analyzed with Origin Software. The dose-response curve was fitted represented by:
Where y is the FRET ratio, A1 is the bottom asymptote, A2 is the top asymptote, p is the Hills slope and x is the ligand concentration.
The coactivator recruitment TR-FRET assay was performed in the presence of increasing fixed concentrations of cholesterol, a well characterized orthosteric agonist.
A terbium labelled anti-His antibody (CisBio Bioassays, 61HISTLA) and D2-labelled streptavidin (CisBio Bioassays, 610SADLA) were used at the concentrations recommended by the supplier. Compounds (dissolved in Dimethyl sulfoxide—DMSO) were titrated using a 2× dilution series from a highest final concentration of […] such that the final DMSO concentration was 2% v/v throughout.

His6-RORγt = target: T2, His6-RORγt (Homo sapiens, UniProt P51449); experiment: Allosteric ligand displacement assay (AlexaFluor 647 probe, FRET); type: binding
T2 sequence (P51449 1-497 isoform P51449-2): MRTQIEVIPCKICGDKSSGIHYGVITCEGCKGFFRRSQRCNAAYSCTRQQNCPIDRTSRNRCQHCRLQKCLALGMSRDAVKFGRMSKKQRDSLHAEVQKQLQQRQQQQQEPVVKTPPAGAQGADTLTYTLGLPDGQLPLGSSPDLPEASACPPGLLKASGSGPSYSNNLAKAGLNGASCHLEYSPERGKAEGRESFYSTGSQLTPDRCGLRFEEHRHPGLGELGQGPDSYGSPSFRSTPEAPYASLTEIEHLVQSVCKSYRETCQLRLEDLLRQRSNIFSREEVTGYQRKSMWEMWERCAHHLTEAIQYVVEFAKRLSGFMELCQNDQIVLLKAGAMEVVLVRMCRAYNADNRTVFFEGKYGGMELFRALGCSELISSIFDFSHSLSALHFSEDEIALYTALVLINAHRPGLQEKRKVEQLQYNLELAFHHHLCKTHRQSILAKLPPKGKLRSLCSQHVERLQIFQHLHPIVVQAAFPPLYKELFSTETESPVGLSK
Description: To provide further evidence for allosteric ligand binding we used an orthogonal assay to directly probe for allosteric ligand binding (as opposed to measuring the indirect effects on coactivator recruitment).

[2] = Table 2, cholesterol concentration of 0 μM, read-out: IC50

O=C(O)c1ccc(NCc2c(-c3c(Cl)cccc3C(F)(F)F)noc2-c2cc[nH]c2)cc1 [Compound 1]
Hill slope ([1]; 0 μM Cholesterol): −0.45 ± 0.02
Hill slope ([1]; 0.1 μM Cholesterol): −0.74 ± 0.03
Hill slope ([1]; 1.0 μM Cholesterol): −0.86 ± 0.03
Dependence of coactivator recruitment inhibition on cholesterol [1]: independent of increasing concentrations of cholesterol

O=C(O)c1ccc(NCc2c(-c3c(Cl)cccc3C(F)(F)F)noc2-c2ccccc2)cc1 [GV068]
IC50 [1, 2]: 9.6 µM

O=C(O)c1ccc(-c2c(-c3c(Cl)cccc3C(F)(F)F)noc2-c2ccccc2)cc1 [GV020]
IC50 [1, 2]: 8.2 µM

O=C(O)c1cccc(NC(=O)c2c(-c3c(Cl)cccc3C(F)(F)F)noc2-c2ccccc2)c1 [RD061]
IC50 [1, 2]: 73.9 µM

O=C(O)c1ccc(S(=O)(=O)Nc2c(-c3c(Cl)cccc3C(F)(F)F)noc2-c2ccccc2)cc1 [GV031]
IC50 [1, 2]: 62.6 µM

O=C(O)c1ccc(NCc2c(-c3c(Cl)cccc3C(F)(F)F)noc2-c2ccco2)cc1 [RD149]
IC50 [1, 2]: 1.1 µM

O=C(O)c1ccc(NCc2c(-c3c(Cl)cccc3C(F)(F)F)noc2-c2cccc(O)c2)cc1 [RD369]
IC50 [1, 2]: 6.6 µM

C[C@H]1O[C@@H](O[C@H]2[C@@H](O)C[C@H](O[C@H]3[C@@H](O)C[C@H](O[C@H]4CC[C@@]5(C)[C@H](CC[C@@H]6[C@@H]5C[C@@H](O)[C@]5(C)[C@@H](C7=CC(=O)OC7)CC[C@]65O)C4)O[C@@H]3C)O[C@@H]2C)C[C@H](O)[C@@H]1O [Compound C, reference compound]
IC50 (His6-RORγt; displacement of Alexa Fluor 647 probe, read-out: AlexaFluor Probe Competition IC50): > 5 µM
IC50 (His6-RORγt; read-out: IC50 for displacement of the Alexa Fluor 647 probe): > 50 µM
Hill slope ([1]; 0 μM Cholesterol): −0.53 ± 0.03
IC50 ([1]; 0 μM Cholesterol, read-out: IC50): 0.774 ± 0.0816 µM
Hill slope ([1]; 0.1 μM Cholesterol): −0.54 ± 0.02
IC50 ([1]; 0.1 μM Cholesterol, read-out: IC50): 5.47 ± 0.456 µM
Hill slope ([1]; 1.0 μM Cholesterol): −0.87 ± 0.04
IC50 ([1]; 1.0 μM Cholesterol, read-out: IC50): 32.4 ± 1.69 µM
IC50 ([1]; as listed beside probe competition (0 μM cholesterol values), read-out: Coactivator Recruitment IC50): 0.774 ± 0.0816 µM
Dependence of coactivator recruitment inhibition on cholesterol [1]: cholesterol-dependent activity profile

O=C(O)c1ccc(CNC(=O)c2c(-c3c(Cl)cccc3C(F)(F)F)noc2-c2ccccc2)cc1 [RD065]
IC50 [1, 2]: 8.8 µM

O=C(O)c1ccc(/N=C/c2c(-c3c(Cl)cccc3C(F)(F)F)noc2-c2cc[nH]c2)cc1 [AS89]
IC50 [1, 2]: 46.6 µM

O=C(O)c1ccc(NC(=O)c2c(-c3c(Cl)cccc3C(F)(F)F)noc2-c2ccccc2)cc1F [RD082]
IC50 [1, 2]: 91.1 µM

O=C(O)c1ccc(NC(=O)c2c(-c3c(Cl)cccc3C(F)(F)F)noc2-c2ccccc2)cc1 [RD032]
IC50 [1, 2]: 53.5 µM

O=C(O)c1ccc(CNc2c(-c3c(Cl)cccc3C(F)(F)F)noc2-c2ccccc2)cc1 [GV032]
IC50 [1, 2]: 30.9 µM

O=C(O)c1ccc(NCc2c(-c3c(Cl)cccc3C(F)(F)F)noc2-c2cccs2)cc1 [RD329]
IC50 [1, 2]: 1.8 µM
